In PubChem BioAssay AID1259407 (Chemical Carcinogenesis Research Information System (CCRIS), 2018) one finds mutagenic call data, which are given here for nine molecules.

The data set relates to CCRIS mutagenicity, Ames/micronucleus/aberration tests. Briefly: CCRIS mutagenicity studies.
[1] abbreviates: Test System: AMES SALMONELLA TYPHIMURIUM, Strain/Indicator: TA98, Metabolic Activation: HAMSTER, LIVER, S-9, AROCLOR 1254 (30%), Method: PREINCUBATION
Where [2] appears, read: Test System: AMES SALMONELLA TYPHIMURIUM, Strain/Indicator: TA98, Metabolic Activation: NONE, Method: PREINCUBATION
[3] abbreviates: Test System: AMES SALMONELLA TYPHIMURIUM, Strain/Indicator: TA98, Metabolic Activation: RAT, LIVER, S-9, AROCLOR 1254 (30%), Method: PREINCUBATION
The mark [4] stands for this setting: Test System: AMES SALMONELLA TYPHIMURIUM, Strain/Indicator: TA100, Metabolic Activation: HAMSTER, LIVER, S-9, AROCLOR 1254 (30%), Method: PREINCUBATION
[5] abbreviates: Test System: AMES SALMONELLA TYPHIMURIUM, Strain/Indicator: TA100, Metabolic Activation: NONE, Method: PREINCUBATION
[6] abbreviates: Test System: AMES SALMONELLA TYPHIMURIUM, Strain/Indicator: TA100, Metabolic Activation: RAT, LIVER, S-9, AROCLOR 1254 (30%), Method: PREINCUBATION

Active and inactive are the calls of the source. The rule behind the calls is not given here.

With `O=C(O)CC[N+](=O)[O-]`, the mutagenic call runs as follows: under setting [1], “inactive; negative”; under setting [2], “inactive; negative”; under setting [3], “inactive; negative”; under setting [4], “active; positive”; under setting [5], “active; positive”; under setting [6], “active; positive”. The mutagenic call is “inactive; negative” (Test System: CHINESE HAMSTER OVARY, Strain/Indicator: CHO-K1-BH4 (HGPRT)/6-THIOGUANINE, Metabolic Activation: NONE); “inactive; negative” (Test System: CHINESE HAMSTER OVARY, Strain/Indicator: CHO-K1-BH4 (HGPRT)/6-THIOGUANINE, Metabolic Activation: S-9); “inactive; negative” (Test System: E. COLI, Strain/Indicator: WP2 UVRA, Metabolic Activation: HAMSTER, LIVER, S-9, AROCLOR 1254, Method: STANDARD PLATE); “inactive; negative” (Test System: E. COLI, Strain/Indicator: WP2 UVRA, Metabolic Activation: HAMSTER, LIVER, S-9, Method: STANDARD PLATE); “inactive; negative” (Test System: E. COLI, Strain/Indicator: WP2 UVRA, Metabolic Activation: MOUSE, LIVER, S-9, AROCLOR 1254, Method: STANDARD PLATE); “inactive; negative” (Test System: E. COLI, Strain/Indicator: WP2 UVRA, Metabolic Activation: MOUSE, LIVER, S-9, Method: STANDARD PLATE). Also, the mutagenic call reads like this: (Test System: E. COLI, Strain/Indicator: WP2 UVRA, Metabolic Activation: NONE, Method: STANDARD PLATE) “inactive; negative”; (Test System: E. COLI, Strain/Indicator: WP2 UVRA, Metabolic Activation: RAT, LIVER, S-9, AROCLOR 1254, Method: STANDARD PLATE) “inactive; negative”; (Test System: E. COLI, Strain/Indicator: WP2 UVRA, Metabolic Activation: RAT, LIVER, S-9, Method: STANDARD PLATE) “inactive; negative”; (Test System: MOUSE LYMPHOMA, Strain/Indicator: L5178Y (TK+/TK-), Metabolic Activation: NONE, Method: SUSPENSION/PLATE) “active; positive”; (Test System: MOUSE LYMPHOMA, Strain/Indicator: L5178Y (TK+/TK-), Metabolic Activation: RAT, LIVER, S-9, AROCLOR 1254, Method: SUSPENSION/PLATE) “active; positive”.

Turning to `NC(=O)N(CCCC(=O)O)N=O`, the mutagenic call under setting [5] is “active; positive”; the mutagenic call (Test System: AMES SALMONELLA TYPHIMURIUM, Strain/Indicator: TA1535, Metabolic Activation: NONE, Method: PREINCUBATION) is “active; positive”; the mutagenic call (Test System: E. COLI B, Strain/Indicator: H/R30R, Metabolic Activation: NONE) was “active; positive”; the mutagenic call (Test System: E. COLI B, Strain/Indicator: HS30R, Metabolic Activation: NONE) is “active; positive”.

For the molecule `O=Cc1cccc(Cl)c1`, the mutagenic call runs as follows: under setting [2], “inactive; negative”; (Test System: AMES SALMONELLA TYPHIMURIUM, Strain/Indicator: TA98, Metabolic Activation: RAT LIVER S-9, PCB, Method: PREINCUBATION) “inactive; negative”; under setting [5], “inactive; negative”; (Test System: AMES SALMONELLA TYPHIMURIUM, Strain/Indicator: TA100, Metabolic Activation: RAT LIVER S-9, PCB, Method: PREINCUBATION) “inactive; negative”; (Test System: AMES SALMONELLA TYPHIMURIUM, Strain/Indicator: TA104, Metabolic Activation: NONE, Method: PREINCUBATION) “inactive; negative”; (Test System: AMES SALMONELLA TYPHIMURIUM, Strain/Indicator: TA104, Metabolic Activation: RAT LIVER S-9, PCB, Method: PREINCUBATION) “inactive; negative”. The mutagenic call is, setting by setting: (Test System: E.COLI, Strain/Indicator: WP2 UVRA, Metabolic Activation: NONE, Method: PREINCUBATION) “inactive; negative”; (Test System: E.COLI, Strain/Indicator: WP2 UVRA, Metabolic Activation: RAT LIVER S-9, PCB, Method: PREINCUBATION) “inactive; negative”.

Consider `C1CN2CCN1CC2`, for which the mutagenic call reads like this: under setting [2], “inactive; negative”; (Test System: AMES SALMONELLA TYPHIMURIUM, Strain/Indicator: TA98, Metabolic Activation: RAT, LIVER, S-9, PCB, Method: PREINCUBATION) “inactive; negative”; under setting [5], “inactive; negative”; (Test System: AMES SALMONELLA TYPHIMURIUM, Strain/Indicator: TA100, Metabolic Activation: RAT, LIVER, S-9, PCB, Method: PREINCUBATION) “inactive; negative”.

For the molecule `O=C(CCCCl)N=c1sn(C(=O)CCCCl)c2ccc([N+](=O)[O-])cc12`, under “Test System: AMES SALMONELLA TYPHIMURIUM, Strain/Indicator: TA100, Metabolic Activation: S-9, Method: STANDARD PLATE”, the mutagenic call was “active; positive”.

In the case of `COc1cc(-c2nc(-c3ccccc3)c(-c3ccccc3)[nH]2)ccc1O`, the mutagenic call is “inactive; negative” (Test System: AMES SALMONELLA TYPHIMURIUM, Strain/Indicator: TA98, Metabolic Activation: NONE, Method: STANDARD PLATE); “inactive; negative” (Test System: AMES SALMONELLA TYPHIMURIUM, Strain/Indicator: TA98, Metabolic Activation: RAT LIVER S-9, 3-METHYLCHOLANTHRENE, SODIUM PHENOBARBITAL, Method: STANDARD PLATE); “active; positive” (Test System: AMES SALMONELLA TYPHIMURIUM, Strain/Indicator: TA100, Metabolic Activation: NONE, Method: STANDARD PLATE).

Consider `CN(C)c1ccc(N=Nc2ccccc2C(=O)O)cc1`, for which the mutagenic call reads like this: (Test System: AMES SALMONELLA TYPHIMURIUM, Strain/Indicator: TA98, Metabolic Activation: RAT, LIVER, S-9, POLYCHLORINATED BIPHENYLS, Method: PREINCUBATION) “active; positive”; (Test System: AMES SALMONELLA TYPHIMURIUM, Strain/Indicator: TA100, Metabolic Activation: RAT, LIVER, S-9, POLYCHLORINATED BIPHENYLS, Method: PREINCUBATION) “inactive; negative”.

In the case of `Cc1ccc2c(c1)Cc1cc(C)ccc1-2`, the mutagenic call by setting is: (Test System: AMES SALMONELLA TYPHIMURIUM, Strain/Indicator: TA98, Metabolic Activation: RAT, LIVER, S-9, AROCLOR 1254, Method: STANDARD PLATE) “inactive; negative”; (Test System: AMES SALMONELLA TYPHIMURIUM, Strain/Indicator: TA100, Metabolic Activation: RAT, LIVER, S-9, AROCLOR 1254, Method: STANDARD PLATE) “inactive; negative”.

Consider `CCCC(=O)Cl`, for which the mutagenic call by setting is: under setting [1], “inactive; negative”; under setting [2], “inactive; negative”; under setting [3], “inactive; negative”; under setting [4], “inactive; negative”; under setting [5], “inactive; negative”; under setting [6], “inactive; negative”.
